Data as given in patent publication US20100069393A1, “METHOD OF TREATMENT AND AGENTS USEFUL FOR SAME” (PRANA BIOTECHNOLOGY LIMITED, priority 2006, published 2010).

Experiment: Cytotoxicity: viability of M17 cells
Conditions: human, M17 neuroblastoma cells, Cytotoxicity (% viable at 1 and 10 uM); for viability at 1 uM: test compound 1 uM; for viability at 10 uM: test compound 10 uM

SMILES | viability at 1 uM [%] | viability at 10 uM [%]
CCC(C)Cn1cnc2c(O)c(I)ccc2c1=O (stereo not drawn) | 42.8 | 19.3
CCN(CC)C(=O)Cn1cnc2c(O)cccc2c1=O | 118 | 102
O=C(Nc1cnc2ccccc2c1)c1cnc2c(O)cccn2c1=O | 102 | 32.8
CCN(CC)CCNC(=O)c1cnc2c(O)cccn2c1=O | 115 | 103
CCCCCn1cnc2c(O)c(Cl)cc(Cl)c2c1=O | 81.3 | 56.8
CCC(C)Cn1cnc2c(O)c(Cl)cc(Cl)c2c1=O (stereo not drawn) | 85.1 | 39.4
O=c1c2cccc(O)c2ncn1-c1nc2ccc(F)cc2s1 | 99.1 | 73.7
O=c1c2cccc(O)c2ncn1-c1ccc(F)cc1F | 104 | 104
O=C(Nc1ccc(F)cc1F)c1cnc2c(O)cccn2c1=O | 99.4 | 67.1
O=c1c2cccc(O)c2ncn1Cc1ccccc1 | 98.5 | 90.4
O=c1c2cccc(O)c2ncn1Cc1nc2ccccc2[nH]1 | 107 | 108
O=c1c2ccc(I)c(O)c2ncn1CCNS(=O)(=O)c1ccc(F)cc1 | 96.5 | 43
CCCS(=O)(=O)NCCn1cnc2c(O)c(I)ccc2c1=O | 104 | 98.6
O=c1c(CCCC2CCSS2)cnc2c(O)cccn12 (stereo not drawn) | 106 | 27.2
O=C1c2ccccc2C(=O)N1CCn1cnc2c(O)c(Cl)cc(Cl)c2c1=O | 104 | 101
O=c1c(-c2ccc(F)cc2)cnc2c(O)cccn12 | 75.3 | 33.8
O=c1c2cccc(O)c2ncn1-c1cccnc1 | 106 | 110
O=C1NC(=O)c2cc(-n3cnc4c(O)cccc4c3=O)ccc21 | 102 | 103
COc1ccc(-n2cnc3c(O)cccc3c2=O)cn1 | 97.8 | 110
O=c1c2cccc(O)c2ncn1Cc1ccncc1 | 105 | 104

SMILES | viability at 1 uM [%] | viability at 10 uM [%]
O=c1c2cccc(O)c2ncn1CCc1ccccn1 | 107 | 96.2
O=c1c2cccc(O)c2ncn1-c1nc2ccccc2[nH]1 | 108 | 103
CCCCc1cnc2c(O)c(-c3ccc(F)cc3)ccn2c1=O | 101 | 37.9
CCCCc1cnc2c(O)c(-c3ccc(OC)cc3)ccn2c1=O | 79.2 | 64.4
CCCCc1cnc2c(O)c(-c3cccnc3)ccn2c1=O | 92.1 | 38.2
O=c1c2cccc(O)c2ncn1Cc1ccc(F)cc1 | 97.2 | 60.5
CCCCc1cnc2c(O)c(-c3cccc(OC)c3)ccn2c1=O | 94.5 | 59.1
CCCc1cnc2c(O)c(Cl)ccn2c1=O | 98.1 | 38.9
O=c1c2c(Cl)cc(Cl)c(O)c2ncn1-c1nc2ccccc2s1 | 82.7 | 63.9
CNS(=O)(=O)Cc1ccc(-n2cnc3c(O)c(Cl)cc(Cl)c3c2=O)cc1 | 93 | 98
O=c1c2c(Cl)cc(Cl)c(O)c2ncn1CCN1Cc2ccccc2C1 | 103 | 62.1
O=c1c2c(Cl)cc(Cl)c(O)c2nc2n1CCC2 | 115 | 93.9
O=c1c2c(Cl)cc(Cl)c(O)c2ncn1CC1CCN(Cc2ccccc2)CC1 | 109 | 83.4
CCN(CC)C(=O)Cn1cnc2c(O)c(Cl)cc(Cl)c2c1=O | 122 | 104
CCNCCn1cnc2c(O)c(Cl)cc(Cl)c2c1=O | 100 | 107
O=c1c2c(Cl)cc(Cl)c(O)c2ncn1CCNC1CC1 | 98.8 | 96.2
Cc1noc(-n2cnc3c(O)c(Cl)cc(Cl)c3c2=O)c1C | 99.6 | 95.4
CC(C)Cn1c(CN(C)C)nc2c(O)c(Cl)cc(Cl)c2c1=O | 104 | 61.5
Cc1nc2ccccc2c(=O)n1O | 101 | 115
